Holding throughout (experiment): NCI tumour cell line growth inhibition, 48 h
For assay [1], the system named is EKVX NSCLC.
The test system of assay [2] is OVCAR-8 ovarian.
Assay [3] deals with SR leukemia.
Assay [4] concerns OVCAR-5 ovarian.
Assay [5] relates to A549 NSCLC.
Assay [6] relates to UO-31 renal.
In assay [7] the test system is 786-0 renal.
Assay [8] relates to MCF7 breast.
Assay [9] has as its system HOP-92 NSCLC.
The test system of assay [10] is SF-539 CNS.

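The compound was tested at five concentrations on cells cultured in 96-well plates, with a 48-hour exposure period. The concentration for 50% growth inhibition is given as GI50. The concentration for full growth arrest is given as TGI.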 Where only a bound is given, the exact number is not on record here.

As to `COc1ccc(C(=O)/C=C/c2cc3ccccc3[nH]c2=O)cc1`, the GI50 in assay [1] was 22.6 µM; in [2] it was 21.7 µM; in assay [3], 17.3 µM; in [4] it was 21.9 µM; in assay [5] it was 20 µM; in assay [6], greater than 100 µM. The GI50 in [8] was 18.8 µM; in [9] it was 17 µM; in assay [10] it was 18.7 µM. Also, the TGI was greater than 94.3 µM in assay [1]; greater than 100 µM in [2]; greater than 100 µM in assay [3]; greater than 56.8 µM in [4]; greater than 100 µM in assay [5]; greater than 100 µM in [6]. For the same compound, the TGI was greater than 37.4 µM in assay [7], greater than 96.1 µM in [8], 37.3 µM in assay [9] and 39.8 µM in assay [10].
Turning to `CC(=O)O[C@H](C[C@H](C(C)C)N(C)C(=O)[C@@H](NC(=O)[C@H]1CCCCN1C)C(C)C)c1nc(C(=O)N[C@@H](Cc2ccccc2)C[C@H](C)C(=O)O)c(C)s1`, the GI50 in assay [1] was 0.00266 µM; in assay [2] it was less than 0.0025 µM; in [3], less than 0.0025 µM; in assay [4], 0.0085 µM; in [5] it was 0.00532 µM; in assay [6], 0.0161 µM. Besides, the GI50 in assay [7] was less than 0.0025 µM; in [8], less than 0.0025 µM; in [9] it was greater than 25 µM; in [10] it was less than 0.0025 µM. The TGI in assay [1], in assay [2], in [3], in [4], in [5] and in assay [6] was greater than 25 µM each time. The TGI is greater than 25 µM in assay [7], greater than 25 µM in [8], greater than 25 µM in assay [9] and 0.0187 µM in [10].
For the compound `COc1cc2c(c(OC)c1OC)-c1ccc(OC)c(=O)cc1[C@@H](NC(=O)CCl)CC2`, the GI50 in assay [1] is less than 0.0191 µM; in assay [2], less than 0.01 µM; in assay [3] it was less than 0.01 µM; in [5] it was less than 0.0141 µM; in [6], 0.0673 µM; in [7], less than 0.01 µM. Besides, the GI50 in assay [8] and in assay [10] was less than 0.01 µM each time. Further, the TGI in assay [1] was 23.7 µM; in assay [2], greater than 33.6 µM; in [3], greater than 95.7 µM; in assay [4] it was 30.5 µM; in assay [5], 25.6 µM; in assay [6], 45.3 µM. Besides, the TGI in [7] stood at 1.7 µM; in assay [8], 17.4 µM; in assay [9], 7.2 µM; in [10], 23.7 µM.
As to `CCN(Cc1ccc(F)cc1)c1ccc(CO)c(Cl)c1`, the GI50 in assay [1] is 17.5 µM; in assay [2] it was 9.24 µM; in assay [3] it was 15.3 µM; in [4], 0.103 µM; in [5] it was 1.16 µM; in assay [6], 3.02 µM. Moreover, the GI50 was 4.6 µM in assay [7], 0.155 µM in assay [8], 0.956 µM in assay [9] and 15.1 µM in [10]. Also, the TGI in assay [1] amounted to 57.5 µM; in assay [2], 43.5 µM; in assay [3], 51.5 µM; in [4], 0.525 µM; in [5], 22.6 µM; in assay [6], 31.5 µM. Besides, the TGI in assay [7] is 23.3 µM; in [8], 7.05 µM; in [9], 13.1 µM; in [10] it was 35.1 µM.
Consider `N=c1nc(N)c2cc3c(N)nc(=N)c3cc12`, for which the TGI in [1] is 75.3 µM; in assay [2], 35 µM; in assay [3] it was 56.5 µM; in assay [4], 73.9 µM; in [5], greater than 100 µM; in assay [6] it was 34.5 µM. Besides, the TGI in assay [7] is 56.6 µM; in assay [8], greater than 100 µM; in assay [9], 25.6 µM; in assay [10], 31.5 µM.
With `CCCCCCN(CCCCCC)C(=N)c1ccnc2ccccc12`, the GI50 in assay [1] is 8.58 µM; in assay [2], 10.4 µM; in assay [3] it was 1.74 µM; in assay [4], 9.64 µM; in [5], 11.9 µM; in assay [6], 0.708 µM. Moreover, the GI50 in assay [7] was 2.82 µM; in assay [8], 2.13 µM; in assay [9], 1.39 µM; in [10], 5.12 µM. Further, the TGI was determined as 22.9 µM in assay [1]; 24.1 µM in [2]; 5.34 µM in assay [3]; 21.7 µM in assay [4]; 25.9 µM in assay [5]; 13 µM in [6]. The TGI in assay [7] was found to be 12.5 µM; in assay [8], 5.53 µM; in assay [9], 9.22 µM; in assay [10] it was 17.5 µM.
As for `Cc1cc(N(CCOS(C)(=O)=O)CCOS(C)(=O)=O)ccc1C=Nc1ccc(-c2csc(-c3ccccc3)n2)c(Cl)c1`, the TGI in assay [1] was 29.1 µM; in [2] it was greater than 84.2 µM; in [3] it was 17.9 µM; in assay [4], 55 µM; in assay [5] it was 15.9 µM; in assay [6] it was 29.7 µM. Besides, the TGI was 17.7 µM in assay [7], greater than 58.9 µM in assay [8], 27.6 µM in assay [9] and 16.8 µM in [10].
Turning to `O=C(O)C(=O)Cc1ccc2c(c1)OCO2`, the TGI in assay [1], in assay [2], in assay [3], in assay [4], in assay [5] and in assay [6] was greater than 100 µM throughout. Besides, the TGI in assay [7], in assay [8], in [9] and in assay [10] was greater than 100 µM throughout.

The record behind these values is PubChem BioAssay (NCI).
